Laboratory results as given in the SangsterLogP compilation.

Row | SMILES | logP
1 | CC(C)(C)c1cc(C(O)CCC2CCNCC2)c2ccccc2n1 (stereo not drawn) | 3.63
2 | C=CCN1CCCC1CNC(=O)c1cc(S(=O)(=O)NC)c(N)cc1OC (stereo not drawn) | 1.69
3 | CC(C)NCCCC1(C(N)=O)c2ccccc2-c2ccccc21 | 3.11
4 | C=CCN1CCCC1CNC(=O)c1cc(S(N)(=O)=O)cc(OC)c1OC (stereo not drawn) | 1.47
5 | O=C(NCC1CCCCN1)c1cc(OCC(F)(F)F)ccc1OCC(F)(F)F (stereo not drawn) | 3.78
6 | CN1CCCCC1CCN1c2ccccc2Sc2ccc(S(C)(=O)=O)cc21 (stereo not drawn) | 4.45
7 | CC(C)NCC(O)COc1cccc2c1N(C(=O)c1cccnc1)CCC2 (stereo not drawn) | 1.63
8 | CNC(=O)Nc1c(OCCN2CCCC2)c(OC)c2occc2c1OC | 1.38
9 | CCN(CC)CCNC(=O)c1ccc(N)cc1 | 0.82
10 | CCN(CC)CCCN(c1ccccc1)C1Cc2ccccc2C1 | 4.86
11 | CN(C)CCCN1c2ccccc2Sc2ccccc21 | 4.64
12 | COc1ccc2c(c1)-c1c(ccc(OC)c1O)CC(CCc1ccccc1)N(C)CC2 (stereo not drawn) | 4.85
13 | CN1CCN(CCCN2c3ccccc3Sc3ccccc32)CC1 | 4
